According to patent publication US9295253B2, “Use of abscisic acid on ornamental plants” (Valent BioSciences Corporation, priority 2007, dated 2016):

Assays:
potted Poinsettia plants = details: foliar application; cited from earlier work
excised Coleus leaves = details: applied through the petiole of excised Coleus leaves, compared to excised leaves standing in water; cited from earlier work
Euryops = assay: Drought tolerance and side effects after ABA drench, irrigation withheld; assay type: in vivo; details: drenched with 250 ppm ABA, greenhouse, no irrigation
From the text: (§1) Many different commercial ornamental crops were obtained from local retailers, or from wholesale nurseries, and transported to a greenhouse for testing. Plants were watered to saturation and allowed to stand and drain for about one hour. Plants were selected for uniformity based on leaf area and arranged in a randomized complete block design, or a completely randomized design, on the greenhouse bench. The plants were sprayed or drenched with water or treatment solution equaling about 5-10% of the pot volume. The plants were held without irrigation until all the plants wilted to a point when they were determined to be unmarketable. The plants were rated daily for the extent of wilting on a scale from 1 for no wilting to 4 for complete wilting. A rating of 2.5 was the point at which a plant was determined to be unmarketable and the previous day was recorded as the marketable life of that plant in days. The plants were rated for the extent of lower leaf yellowing or leaf or flower abscission on a scale from 1 for no yellowing or abscission to 4 for complete yellowing or abscission. A rating of 2.5 was the point at which a plant was determined to be unmarketable.
(§2) Plants were individually rated on a daily basis for degree of wilting and other undesirable characteristics like leaf yellowing.

Poinsettia = assay: as above; assay type: in vivo; details: drenched with 250 ppm ABA, greenhouse, no irrigation
From the text: as §1, §2

Cuphea = assay: as above; assay type: in vivo; details: drenched with 250 ppm ABA, greenhouse, no irrigation
From the text: as §1, §2

Gazania = assay: as above; assay type: in vivo; details: drenched with 250 ppm ABA, greenhouse, no irrigation
From the text: as §1, §2

Cosmos = assay: as above; assay type: in vivo; details: drenched with 250 ppm ABA, greenhouse, no irrigation
From the text: as §1, §2

Calibrachoa = assay: as above; assay type: in vivo; details: drenched with 250 ppm ABA, greenhouse, no irrigation
From the text: as §1, §2

Lobelia = assay: as above; assay type: in vivo; details: drenched with 250 ppm ABA, greenhouse, no irrigation
From the text: as §1, §2

Marigold = assay: as above; assay type: in vivo; details: drenched with 250 ppm ABA, greenhouse, no irrigation
From the text: as §1, §2

Salvia = assay: as above; assay type: in vivo; details: drenched with 250 ppm ABA, greenhouse, no irrigation
From the text: as §1, §2

Pansy = assay: as above; assay type: in vivo
From the text: as §1, §2

Impatiens = assay: as above; assay type: in vivo; details: drenched with 250 ppm ABA, greenhouse, no irrigation
From the text: as §1, §2

New Guinea Impatiens = assay: as above; assay type: in vivo
From the text: as §1, §2

Coleus = assay: as above; assay type: in vivo; details: drenched with 250 ppm ABA, greenhouse, no irrigation
From the text: as §1, §2

Alyssum = assay: as above; assay type: in vivo; details: drenched with 250 ppm ABA, greenhouse, no irrigation
From the text: as §1, §2

Snapdragon = assay: as above; assay type: in vivo; details: drenched with 250 ppm ABA, greenhouse, no irrigation
From the text: as §1, §2

Agapanthus = assay: as above; assay type: in vivo; details: drenched with 250 ppm ABA, greenhouse, no irrigation
From the text: as §1, §2

Dianthus = assay: as above; assay type: in vivo; details: drenched with 250 ppm ABA, greenhouse, no irrigation
From the text: as §1, §2

Hydrangea = assay: as above; assay type: in vivo; details: drenched with 250 ppm ABA, greenhouse, no irrigation
From the text: as §1, §2

Rose = assay: as above; assay type: in vivo; details: drenched with 250 ppm ABA, greenhouse, no irrigation
From the text: as §1, §2

Petunia = assay: as above; assay type: in vivo; details: drenched with 250 ppm ABA, greenhouse, no irrigation
From the text: as §1, §2

Pentas = assay: as above; assay type: in vivo; details: drenched with 250 ppm ABA, greenhouse, no irrigation
From the text: as §1, §2

Lantana = assay: as above; assay type: in vivo; details: drenched with 250 ppm ABA, greenhouse, no irrigation
From the text: as §1, §2

Vinca = assay: as above; assay type: in vivo
From the text: as §1, §2

Celosia = assay: as above; assay type: in vivo; details: drenched with 250 ppm ABA, greenhouse, no irrigation
From the text: as §1, §2

Chrysanthemum = assay: as above; assay type: in vivo; details: drenched with 250 ppm ABA, greenhouse, no irrigation
From the text: as §1, §2

[1] = drenched with 250 ppm ABA, greenhouse, no irrigation

Substance: (S)-5-(1-hydroxy-2,6,6,-trimethyl-4-oxo-2-cyclohexen-1-yl)-3-methyl-(2Z,4E)-pentadienoic acid [ABA]
- Transpiration (potted Poinsettia plants): reduced the transpiration
- Transpiration rate (excised Coleus leaves): reduces their transpiration rate
- Market life extension (days of additional market life compared to control plants due to delayed wilting) (Euryops): 3.3 days
- Market life extension (days of additional market life compared to control plants due to delayed wilting) (Poinsettia): 2.0 days
- Market life extension (days of additional market life compared to control plants due to delayed wilting) (Cuphea): 2.3 days
- Market life extension (days of additional market life compared to control plants due to delayed wilting) (Gazania): 0 days
- Market life extension (days of additional market life compared to control plants due to delayed wilting) (Cosmos): 1.4 days
- Market life extension (days of additional market life compared to control plants due to delayed wilting) (Calibrachoa): 0 days
- Market life extension (days of additional market life compared to control plants due to delayed wilting) (Lobelia): 2.5 days
- Market life extension (days of additional market life compared to control plants due to delayed wilting) (Marigold): 1.9 days
- Market life extension (days of additional market life compared to control plants due to delayed wilting) (Salvia): 1.9 days
- Drought tolerance of treated plants (in words) (Pansy; ABA application): more drought tolerant
- Market life extension (days of additional market life compared to control plants due to delayed wilting) (Pansy; [1]): 1.6 days
- Market life extension (days of additional market life compared to control plants due to delayed wilting) (Impatiens): 2.0 days
- Drought tolerance of treated plants (in words) (New Guinea Impatiens; ABA application): much greater drought tolerance
- Market life extension (days of additional market life compared to control plants due to delayed wilting) (New Guinea Impatiens; [1]): 3.3 days
- Market life extension (days of additional market life compared to control plants due to delayed wilting) (Coleus): 2.3 days
- Market life extension (days of additional market life compared to control plants due to delayed wilting) (Alyssum): 0 days
- Market life extension (days of additional market life compared to control plants due to delayed wilting) (Snapdragon): 1.5 days
- Market life extension (days of additional market life compared to control plants due to delayed wilting) (Agapanthus): 0 days
- Market life extension (days of additional market life compared to control plants due to delayed wilting) (Dianthus): 1.6 days
- Market life extension (days of additional market life compared to control plants due to delayed wilting) (Hydrangea): 3.4 days
- Market life extension (days of additional market life compared to control plants due to delayed wilting) (Rose): 0 days
- Market life extension (days of additional market life compared to control plants due to delayed wilting) (Petunia): 3.5 days
- Market life extension (days of additional market life compared to control plants due to delayed wilting) (Pentas): 2.8 days
- Market life extension (days of additional market life compared to control plants due to delayed wilting) (Lantana): 2.4 days
- Drought tolerance of treated plants (in words) (Vinca; ABA application): more drought tolerant
- Market life extension (days of additional market life compared to control plants due to delayed wilting) (Vinca; [1]): 2.5 days
- Market life extension (days of additional market life compared to control plants due to delayed wilting) (Celosia): 2.3 days
- Market life extension (days of additional market life compared to control plants due to delayed wilting) (Chrysanthemum): 2.0 days
